{"source": "paper PMC9077138", "about": "“An investigation on 3-acetyl-7-methoxy-coumarin Schiff bases and their Ru(II) metallates with potent antiproliferative activity and enhanced LDH and NO release” (RSC Advances, 2018)", "key": {"BSA": {"biological_target": "T1, BSA (Bos taurus, UniProt P02769)", "T1 construct": "purchased HiMedia (Mumbai, India)", "T1 sequence (P02769 25-607)": "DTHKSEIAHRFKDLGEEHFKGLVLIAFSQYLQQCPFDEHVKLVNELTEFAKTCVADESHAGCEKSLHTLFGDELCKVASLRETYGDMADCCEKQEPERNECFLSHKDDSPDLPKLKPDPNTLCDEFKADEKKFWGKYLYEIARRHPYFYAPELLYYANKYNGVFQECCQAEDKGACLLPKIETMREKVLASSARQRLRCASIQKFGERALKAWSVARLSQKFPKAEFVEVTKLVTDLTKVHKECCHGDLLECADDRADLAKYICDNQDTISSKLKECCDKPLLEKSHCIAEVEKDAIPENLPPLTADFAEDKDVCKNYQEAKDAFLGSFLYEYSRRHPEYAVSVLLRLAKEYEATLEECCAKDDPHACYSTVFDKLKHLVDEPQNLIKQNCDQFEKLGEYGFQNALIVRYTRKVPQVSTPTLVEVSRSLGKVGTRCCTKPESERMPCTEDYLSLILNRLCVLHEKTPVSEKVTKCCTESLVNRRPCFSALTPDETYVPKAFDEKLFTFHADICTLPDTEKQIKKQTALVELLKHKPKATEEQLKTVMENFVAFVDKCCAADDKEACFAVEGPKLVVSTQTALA", "test": "BSA tryptophan fluorescence quenching", "assay_type": "binding, bovine", "source_text": "(§1) The obtained results confirmed the interaction of the ligands and complexes with serum albumins. The absorption spectra of the serum albumins in the absence and presence of ligands H2L^1–4 and the complexes 1–4 are given in Fig. S29 in the ESI. ^† On adding ligands and complexes 1–4 to albumins, the absorbance intensity of serum albumins was decreased with a red shift of 2 nm. The observed changes indicated a static quenching mechanism of serum albumins by the ligands and complexes (1–4). To obtain a quantitative insight into the quenching progression, the Stern–Volmer quenching constant (KSV) and the quenching constant (Kq) were calculated from the Stern–Volmer equation using the Io/ICorrversus [Q] plot (Table 4).[53] The observed linearity in the plots (Fig. 13) indicated the ability of the compounds to quench the emission intensity of serum albumins and the order of quenching constant of the compounds is complex 3 > complex 2 > complex 1 > complex 4 > H2L^3 > H2L^2 > H2L^1 > H2L^4.\n(§2) Furthermore, the equilibrium binding constant and number of binding sites were evaluated by using the Scatchard equation. The Kbin values were derived from the graph between log[(Fo − F)/F] and log[Q] From the results, we confirmed that the Ru(II) complexes having a large hydrophobic area can interact more efficiently than the ligands with serum albumins via a static pathway. The higher binding affinity of the complexes over the ligands may be due to the efficient binding of protein moiety with the complexed metal ions. Here, the binding affinities of the complexes with serum albumins followed the same order as those with DNA binding studies, complex 3 > complex 2 > complex 1 > complex 4 > H2L^3 > H2L^2 > H2L^1 > H2L^4. Variation in the binding affinity of the compounds with serum albumins depends on the electron-donating ability of the ligand, i.e. the substitution on the N-terminal nitrogen atom. The binding capability of the compounds to serum albumins increased with the increase in electron-donating ability of the substituent on the terminal nitrogen of the coordinated thiosemicarbazone ligand. The obtained quenching constant and binding constant values of these new cyclometallated ruthenium(II) complexes agree well with those reported for other ruthenium(II) complexes.[31,44,54–56] […]\n(§3) Serum albumin binding study\n(§4) Bovine Serum Albumin (BSA) and human serum albumin were purchased from Hi Media, The protein binding study was performed by tryptophan fluorescence quenching experiments using bovine serum albumin (BSA, 10 µM) or human serum albumin (HSA, 10 µM) as the substrate in phosphate buffer (pH= 7.2). Quenching of the emission intensity of tryptophan residues of BSA at 346 nm (excitation wavelength at 280 nm)/ HSA at 345 nm (excitation wavelength at 290 nm) was monitored using ligands and complexes as quenchers with increasing concentration (10-100µM). Synchronous fluorescence spectra of BSA or HSA with various concentrations of the complexes were obtained from 300 to 400 nm when ∆λ = 60 nm and from 290 to 500 nm when ∆λ = 15 nm. For synchronous fluorescence spectra, the same concentrations of serum albumins and the compounds were also used and the spectra were measured at two different Δλ values (difference between the excitation and emission wavelengths of BSA), such as 15 and 60 nm. Fluorescence and synchronous measurements were performed using a 1 cm quartz cell on a JASCO FP 6600 spectrofluorimeter.\n(§5) The quenching data can be analyzed according to the Stern-Volmer equation, […]\n(§6) Io/Icorr =K SV[Q]+1 Eq (S2) where Iₒ is the emission intensity in the absence of compound, Icorr is the corrected emission intensity in the presence of compound, KSV is the quenching constant and [Q] is the concentration of the compound.\n(§7) In order to correct the inner filter effect, the following equation used Icorr = Iobs*10 (Aexc+Aem)/2 where Icorr is the corrected fluorescence value, Iobs the measured fluorescence value, Aexc is […]"}, "HSA": {"biological_target": "T2, HSA (Homo sapiens, UniProt P02768)", "T2 construct": "purchased HiMedia (Mumbai, India)", "T2 sequence (P02768 25-609)": "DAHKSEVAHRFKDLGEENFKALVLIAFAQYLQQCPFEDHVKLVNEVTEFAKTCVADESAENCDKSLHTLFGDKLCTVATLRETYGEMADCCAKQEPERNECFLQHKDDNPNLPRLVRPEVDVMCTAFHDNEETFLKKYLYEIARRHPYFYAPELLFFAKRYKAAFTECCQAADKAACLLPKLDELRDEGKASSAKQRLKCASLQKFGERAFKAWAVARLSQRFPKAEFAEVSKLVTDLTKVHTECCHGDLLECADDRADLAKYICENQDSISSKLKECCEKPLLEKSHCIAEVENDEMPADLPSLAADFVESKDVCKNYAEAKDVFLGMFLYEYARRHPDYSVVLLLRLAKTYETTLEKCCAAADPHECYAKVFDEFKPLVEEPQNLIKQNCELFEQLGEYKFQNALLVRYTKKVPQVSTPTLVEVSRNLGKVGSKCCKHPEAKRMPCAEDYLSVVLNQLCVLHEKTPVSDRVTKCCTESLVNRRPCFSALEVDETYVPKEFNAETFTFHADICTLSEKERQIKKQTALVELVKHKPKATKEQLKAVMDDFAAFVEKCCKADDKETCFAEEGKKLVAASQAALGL", "test": "HSA tryptophan fluorescence quenching", "assay_type": "binding", "source_text": "as §1, §2, §3, §4, §5, §6, §7"}, "P. aeruginosa": {"test_system": "P. aeruginosa", "test": "In vitro antibacterial assay (zone of inhibition, MIC)", "assay_type": "cell-based, Pseudomonas aeruginosa", "details": "P. aeruginosa"}, "S. paratyphi": {"test_system": "S. paratyphi", "test": "In vitro antibacterial assay (zone of inhibition, MIC)", "assay_type": "cell-based, Salmonella paratyphi", "how_it_was_run": "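Agar well diffusion against Salmonella paratyphi, with compounds tested at 25, 50 and 100 μg ml^−1 in triplicate. Read-outs were mean zone of inhibition and minimum inhibitory concentration. Gentamicin served as positive control.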"}, "Aspergillus fumigatus": {"test_system": "Aspergillus fumigatus", "test": "In vitro antifungal assay (zone of inhibition, MIC)", "assay_type": "cell-based"}, "Aspergillus niger": {"test_system": "Aspergillus niger", "test": "In vitro antifungal assay (zone of inhibition, MIC)", "assay_type": "cell-based"}, "Candida tropicalis": {"test_system": "Candida tropicalis", "test": "In vitro antifungal assay (zone of inhibition, MIC)", "assay_type": "cell-based"}, "Trichophyton rubrum": {"test_system": "Trichophyton rubrum", "test": "In vitro antifungal assay (zone of inhibition, MIC)", "assay_type": "cell-based"}, "C. albicans": {"test_system": "C. albicans", "test": "In vitro antifungal assay (zone of inhibition, MIC)", "assay_type": "cell-based, Candida albicans", "details": "C. albicans"}}, "data": [{"compound": "CCNC1=N[N+]2=C(C)c3[c](c4ccc(OC)cc4oc3=O)[Ru-4]2([C]#[O+])([P+](c2ccccc2)(c2ccccc2)c2ccccc2)([P+](c2ccccc2)(c2ccccc2)c2ccccc2)[S]1", "note": "[Complex 3, [Ru(7MAC-etsc)(CO)(PPh3)2]]", "values": [{"measurement": "Quenching constant kq", "setting": "BSA; BSA", "result": "1.756 ± 0.080 × 10^12 M^−1 s^−1"}, {"measurement": "Stern–Volmer KSV", "setting": "BSA; BSA", "result": "1.756 ± 0.080 × 10^4 M^−1"}, {"measurement": "number of binding sites n", "setting": "BSA; BSA", "result": "1.266 ± 0.0290"}, {"measurement": "Binding constant Kbin", "setting": "BSA; BSA, Scatchard equation", "result": "17.49 ± 0.030 × 10^4 M^−1"}, {"measurement": "quenching of BSA fluorescence intensity at 346 nm", "setting": "BSA; compounds 10–100 μM, BSA 10 μM", "result": 63.19, "unit": "%"}, {"measurement": "Quenching constant kq", "setting": "HSA; HSA", "result": "1.189 ± 0.030 × 10^12 M^−1 s^−1"}, {"measurement": "Stern–Volmer KSV", "setting": "HSA; HSA", "result": "1.189 ± 0.030 × 10^4 M^−1"}, {"measurement": "number of binding sites n", "setting": "HSA; HSA", "result": "1.2027 ± 0.030"}, {"measurement": "Binding constant Kbin", "setting": "HSA; HSA, Scatchard equation", "result": "7.194 ± 0.041 × 10^4 M^−1"}, {"measurement": "decrease of HSA fluorescence intensity", "setting": "HSA; compounds 10–100 μM, HSA 10 μM", "result": 53.45, "unit": "%"}, {"measurement": "Minimum inhibitory concentration (MIC); head: IC50 VALUES", "setting": "P. aeruginosa", "result": "14.46 ± 0.18", "unit": "µM"}, {"measurement": "Zone of inhibition", "setting": "P. aeruginosa; 50 µg/ml", "result": "13.23±0.52", "unit": "mm"}, {"measurement": "Zone of inhibition", "setting": "P. aeruginosa; 100 µg/ml", "result": "17.34±0.45", "unit": "mm"}, {"measurement": "Zone of inhibition", "setting": "S. paratyphi; 50 µg/ml", "result": "12.53±0.14", "unit": "mm"}, {"measurement": "Zone of inhibition", "setting": "S. paratyphi; 100 µg/ml", "result": "17.44±0.27", "unit": "mm"}, {"measurement": "Minimum inhibitory concentration (MIC); head: IC50 VALUES", "setting": "Aspergillus fumigatus", "result": "14.44 ± 0.27", "unit": "µM"}, {"measurement": "Zone of inhibition", "setting": "Aspergillus fumigatus; 50 µg/ml", "result": "13.53±0.13", "unit": "mm"}, {"measurement": "Zone of inhibition", "setting": "Aspergillus fumigatus; 100 µg/ml", "result": "18.31±0.21", "unit": "mm"}, {"measurement": "Minimum inhibitory concentration (MIC); head: IC50 VALUES", "setting": "Aspergillus niger", "result": "14.44 ± 0.21", "unit": "µM"}, {"measurement": "Zone of inhibition", "setting": "Aspergillus niger; 50 µg/ml", "result": "12.73±0.55", "unit": "mm"}, {"measurement": "Zone of inhibition", "setting": "Aspergillus niger; 100 µg/ml", "result": "18.43±0.12", "unit": "mm"}, {"measurement": "Minimum inhibitory concentration (MIC); head: IC50 VALUES", "setting": "Candida tropicalis", "result": "13.37 ± 0.16", "unit": "µM"}, {"measurement": "Zone of inhibition", "setting": "Candida tropicalis; 50 µg/ml", "result": "13.55±0.34", "unit": "mm"}, {"measurement": "Zone of inhibition", "setting": "Candida tropicalis; 100 µg/ml", "result": "17.91±0.31", "unit": "mm"}, {"measurement": "Minimum inhibitory concentration (MIC); head: IC50 VALUES", "setting": "Trichophyton rubrum", "result": "14.97 ± 0.31", "unit": "µM"}, {"measurement": "Zone of inhibition", "setting": "Trichophyton rubrum; 50 µg/ml", "result": "13.25±0.52", "unit": "mm"}, {"measurement": "Zone of inhibition", "setting": "Trichophyton rubrum; 100 µg/ml", "result": "17.44±0.61", "unit": "mm"}, {"measurement": "Minimum inhibitory concentration (MIC); head: IC50 VALUES", "setting": "C. albicans", "result": "13.24 ± 0.16", "unit": "µM"}, {"measurement": "Zone of inhibition", "setting": "C. albicans; 50 µg/ml", "result": "12.29±0.15", "unit": "mm"}, {"measurement": "Zone of inhibition", "setting": "C. albicans; 100 µg/ml", "result": "17.73±0.21", "unit": "mm"}]}]}
